Results taken from patent US8207175B2, “Inhibitor compounds” (University Court of the University of Dundee, priority 2005, dated 2012).
Read-outs that look alike come from different tables or passages of the source.

Assays:
AfChiB1 [1] = target: T1, AfChiB1 (Aspergillus fumigatus, UniProt Q873X9); assay: biochemical; type: biochemical
Text: AfChiB1 was expressed, purified and inhibition studies performed as previously described [F. V. Rao, D. R. Houston, R. G. Boot, J. M. F. G. Aerts, M. Hodkinson, D. J. Adams, K. Shiomi, S. Omura, and D. M. F. van Aalten, Specificity and affinity of natural product cyclopentapeptide inhibitors against Aspergillus fumigatus, human and bacterial chitinases, Chemistry & Biology, 12, 65-76 (2005)].
Briefly, AfChiB1 was overexpressed as a GST-fusion protein in E. coli and purified using a combination of affinity and size-exclusion chromatography.
AfChiB1 inhibition was studied using the fluorogenic substrate 4-methylumbelliferyl-β-D-N,N′-diacetylchitobiose (4MU-GlcNAc2; Sigima). Briefly, in a final volume of 50 μl, 2 nM of enzyme was incubated with 20 μM substrate in McIlvain buffer (100 mM citric acid, 200 mM sodium phosphate, pH 5.5) containing 0.1 mg/ml BSA, for 10 min at 37° C. in the presence of different concentration of inhibitors. After the addition of 25 μl of 3 M glycine-NaOH, pH 10.3, the fluorescence of the liberated 4-methylumbelliferone (4MU) was quantified using a Flx 800 microtitrepiate fluorescence reader (Bio-Tek Instruments Inc.), with excitation and emission wavelengths of 360 nm and 460 nm, respectively, using 40 nm slits. Experiments were performed in triplicate. […]
The mode of action was determined by plotting the data as Lineweaver-Burk plots, and by fitting all data to the standard competitive inhibition equation with the GraFit software [R. J. Leatherbarrow, GraFit Version 5, Erithacus Software Ltd., Horley, U.K., (2001)].
The compounds according to an embodiment of the present invention were prepared according to the following methods, and further evaluated as inhibitors against AfChiB using the fluorescence-based assay described herein using 4methylumbelliferyl β-D-N,N-deacetyl-chitobioside as substrate. The assay results are shown in the accompanying tables 3-6.

human chitotriosidase = target: T2, human chitotriosidase (Homo sapiens, UniProt Q13231); assay: Human chitotriosidase inhibition, 4MU-GlcNAc2 chitinase assay; type: biochemical; settings: 22 μM substrate, 1 nM enzyme, 30° C. for 30 minutes; read-out: hCHT IC50
T2 construct: made in house; host or cells: HEK 293 (transient transfection, supernatant)
T2 sequence (Q13231 22-466): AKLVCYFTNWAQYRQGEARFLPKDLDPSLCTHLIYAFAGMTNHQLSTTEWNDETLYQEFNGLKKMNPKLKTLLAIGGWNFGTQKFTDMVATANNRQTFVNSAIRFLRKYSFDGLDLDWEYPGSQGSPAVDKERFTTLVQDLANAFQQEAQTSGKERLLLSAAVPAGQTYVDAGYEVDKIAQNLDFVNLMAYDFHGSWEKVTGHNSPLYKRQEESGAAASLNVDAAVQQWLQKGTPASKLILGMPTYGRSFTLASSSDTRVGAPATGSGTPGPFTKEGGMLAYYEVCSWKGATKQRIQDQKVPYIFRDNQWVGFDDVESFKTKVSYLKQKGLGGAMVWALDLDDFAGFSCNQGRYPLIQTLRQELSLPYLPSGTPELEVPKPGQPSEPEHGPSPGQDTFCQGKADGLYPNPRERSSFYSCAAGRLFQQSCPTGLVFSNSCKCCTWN
Description: Inhibition studies were also performed on human chitotriosidase and AMCase.
The vector encodes three adjacent FLAG epitopes downstream of the cloning region. Plasmids encoding Flag tagged chitotriosidase and hAMCase were then transiently transfected into HEK 293 cells and supernatants harvested 3 or 6 days after transfection. FLAG-tagged expressing proteins were purified over an anti-FLAG M2 gel affinity column and eluted with a 3XFLAG peptide according to the manufacturers instructions. […] The buffers were same as described above for fungal chitinase assessments except that the assay was carried out at 30° C. for 30 minutes.

human AMCase = target: T3, human AMCase (Homo sapiens, UniProt Q9BZP6); assay: Human AMCase inhibition, 4MU-GlcNAc2 chitinase assay; type: biochemical; settings: 1 mM inhibitor
T3 construct: made in house; host or cells: HEK 293 (transient transfection, supernatant)
T3 sequence (Q9BZP6 22-476): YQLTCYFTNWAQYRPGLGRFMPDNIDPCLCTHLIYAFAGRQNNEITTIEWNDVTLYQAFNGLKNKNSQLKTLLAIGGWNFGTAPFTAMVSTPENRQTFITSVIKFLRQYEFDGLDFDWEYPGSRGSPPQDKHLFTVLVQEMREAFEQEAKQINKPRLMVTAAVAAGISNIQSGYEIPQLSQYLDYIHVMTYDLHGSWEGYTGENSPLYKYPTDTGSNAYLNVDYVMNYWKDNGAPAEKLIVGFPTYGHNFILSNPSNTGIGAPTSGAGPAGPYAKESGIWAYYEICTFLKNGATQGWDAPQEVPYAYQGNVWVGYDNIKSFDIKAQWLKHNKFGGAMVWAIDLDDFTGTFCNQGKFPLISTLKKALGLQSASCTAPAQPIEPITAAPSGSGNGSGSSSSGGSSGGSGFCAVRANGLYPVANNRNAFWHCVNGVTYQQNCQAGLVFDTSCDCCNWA
Description: Briefly, the assay consisted of fluorogenic substrate 4-methylumbelliferyl-β-D-N,N′-diacetylchitobiose (4MU-GlcNAc2; Sigma) at a final concentration of 22 μM, along with 1 nM of enzyme in a final volume of 100 μl. The fluorescence was read using excitation and emission wavelengths of 355 nm and 460 nm respectively. The buffers were same as described above for fungal chitinase assessments except that the assay was carried out at 30° C. for 30 minutes.

[2] = target: cellulase from Aspergillus niger; assay: Cellulase assay, 4-methylumbelliferyl-β-D-cellobioside; type: biochemical; settings: 5 nM enzyme, 20 μM substrate, 30 min at 37° C.
Description: (§1) Additionally, for comparison, inhibition studies were performed on celluase from Aspergillus niger, phosphodiesterase 4A and lysozyme.
Commercially available […] from Aspergillus niger (Sigma: C-1184) was assayed, using the fluorogenic substrate 4-methylumbelliferyl-β-D-cellobioside (Sigma M-6018). In a final volume of 50 μl, 5 nM of enzyme was incubated with 20 μM substrate in McIlvain buffer containing 0.1 mg/ml BSA, for 30 min at 37° C. in the presence of different concentration of inhibitors. After the addition of 25 μl of 3 M glycine-NaOH, pH 10.3, the fluorescence of the liberated 4-methylumbelliferone (4MU) was quantified using an Flx 800 microtitreplate fluorescence reader (Bio-Tek Instruments Inc.), with excitation and emission wavelengths of 360 nm and […], respectively, using 40 nm slits. Experiments were performed in triplicate. Production of 4MU was linear with time for the incubation period used, and less than 10% of available substrate was hydrolyzed.

[3] = target: T4, Chicken egg white lysozyme (Gallus gallus, UniProt P00698); assay: Lysozyme assay, EnzCheck Lysozyme kit; type: biochemical; settings: 500 μM inhibitor
T4 construct: Chicken egg white lysozyme and its substrate; purchased Molecular probes EnzCheck Lysozyme kit; host or cells: chicken egg white
T4 sequence (P00698 19-147): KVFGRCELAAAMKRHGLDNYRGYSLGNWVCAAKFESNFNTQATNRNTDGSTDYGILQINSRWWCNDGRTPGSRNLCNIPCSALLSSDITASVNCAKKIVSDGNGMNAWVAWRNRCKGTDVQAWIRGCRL
Description: as §1
Lysozyme was assayed using the EnzCheck Lysozyme kit from Molecular probes as described by the manufacturer. Chicken egg white lysozyme and its substrate, fluorescein labeled Micrococcus lysodeikyius cell wall (DQ Lysozyme substrate) were used to determine compound inhibition. Briefly, 6.25 units of lysozyme were incubated with 25 μg of DQ substrate with or without various concentrations of inhibitor in a total volume of 100 μl at 37° C. for 30 minutes. The fluorescence was determined using excitation and emission wavelengths of 360 nm and 460 nm, respectively. The potency of inhibitors (IC50) was determined from a dose-response curve. Experiments were performed in triplicate.

[4] = target: H.Chito (human chitotriosidase) (Homo sapiens, UniProt Q13231); assay: Further inhibition studies, human chitotriosidase (Table 2); type: biochemical
H.Chito (human chitotriosidase), sequence (Q13231 22-466): as the sequence (Q13231 22-466) above
Text: (§2) Inhibition Studies on Human and Mouse AMCase and Chitotriosidase

H.AMCase (human AMCase) = H.AMCase (human AMCase) (Homo sapiens, UniProt Q9BZP6); assay: Further inhibition studies, human AMCase (Table 2); type: biochemical
H.AMCase (human AMCase), sequence (Q9BZP6 22-476): as the sequence (Q9BZP6 22-476) above
Text: as §2

M.AMCase (mouse AMCase) = M.AMCase (mouse AMCase) (Mus musculus, UniProt Q91XA9); assay: Further inhibition studies, mouse AMCase (Table 2); type: biochemical
M.AMCase (mouse AMCase), sequence (Q91XA9 22-473): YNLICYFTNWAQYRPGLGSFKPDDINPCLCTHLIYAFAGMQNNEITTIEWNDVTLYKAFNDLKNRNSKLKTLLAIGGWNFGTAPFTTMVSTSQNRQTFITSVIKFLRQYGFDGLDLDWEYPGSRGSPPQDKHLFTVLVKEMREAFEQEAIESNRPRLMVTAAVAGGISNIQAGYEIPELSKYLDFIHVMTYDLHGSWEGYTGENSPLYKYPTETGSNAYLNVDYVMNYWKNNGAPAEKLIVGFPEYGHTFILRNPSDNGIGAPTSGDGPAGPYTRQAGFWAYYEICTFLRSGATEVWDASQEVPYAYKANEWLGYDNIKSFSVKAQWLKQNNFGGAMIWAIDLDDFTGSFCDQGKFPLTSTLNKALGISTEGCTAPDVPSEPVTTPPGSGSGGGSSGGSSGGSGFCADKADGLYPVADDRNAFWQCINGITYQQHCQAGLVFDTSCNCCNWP
Text: as §2

[5] = target: M.Chito (mouse chitotriosidase) (Mus musculus, UniProt Q9D7Q1); assay: Further inhibition studies, mouse chitotriosidase (Table 2); type: biochemical
M.Chito (mouse chitotriosidase), sequence (Q9D7Q1 22-464): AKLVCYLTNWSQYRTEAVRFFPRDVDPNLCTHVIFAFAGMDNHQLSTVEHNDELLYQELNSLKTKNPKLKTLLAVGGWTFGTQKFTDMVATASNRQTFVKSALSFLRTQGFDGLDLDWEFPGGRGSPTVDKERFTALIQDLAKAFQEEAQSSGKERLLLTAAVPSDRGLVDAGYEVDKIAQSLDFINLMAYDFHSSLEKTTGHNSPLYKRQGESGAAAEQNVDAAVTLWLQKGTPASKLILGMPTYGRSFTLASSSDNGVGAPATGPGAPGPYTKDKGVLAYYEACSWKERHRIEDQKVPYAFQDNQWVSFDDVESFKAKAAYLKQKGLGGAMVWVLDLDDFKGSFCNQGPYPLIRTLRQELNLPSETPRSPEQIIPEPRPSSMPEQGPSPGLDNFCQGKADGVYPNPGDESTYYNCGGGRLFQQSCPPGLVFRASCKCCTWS
Text: as §2

AfChiB1 [6] = target: T1, AfChiB1; assay: AfChiB1 binding (Kd)
[7] = target: Phosphodiesterase 4A (PDE4A) (Homo sapiens, UniProt P27815); settings: PDE-SPA assay, result in words
Phosphodiesterase 4A (PDE4A), sequence (P27815 whole entry): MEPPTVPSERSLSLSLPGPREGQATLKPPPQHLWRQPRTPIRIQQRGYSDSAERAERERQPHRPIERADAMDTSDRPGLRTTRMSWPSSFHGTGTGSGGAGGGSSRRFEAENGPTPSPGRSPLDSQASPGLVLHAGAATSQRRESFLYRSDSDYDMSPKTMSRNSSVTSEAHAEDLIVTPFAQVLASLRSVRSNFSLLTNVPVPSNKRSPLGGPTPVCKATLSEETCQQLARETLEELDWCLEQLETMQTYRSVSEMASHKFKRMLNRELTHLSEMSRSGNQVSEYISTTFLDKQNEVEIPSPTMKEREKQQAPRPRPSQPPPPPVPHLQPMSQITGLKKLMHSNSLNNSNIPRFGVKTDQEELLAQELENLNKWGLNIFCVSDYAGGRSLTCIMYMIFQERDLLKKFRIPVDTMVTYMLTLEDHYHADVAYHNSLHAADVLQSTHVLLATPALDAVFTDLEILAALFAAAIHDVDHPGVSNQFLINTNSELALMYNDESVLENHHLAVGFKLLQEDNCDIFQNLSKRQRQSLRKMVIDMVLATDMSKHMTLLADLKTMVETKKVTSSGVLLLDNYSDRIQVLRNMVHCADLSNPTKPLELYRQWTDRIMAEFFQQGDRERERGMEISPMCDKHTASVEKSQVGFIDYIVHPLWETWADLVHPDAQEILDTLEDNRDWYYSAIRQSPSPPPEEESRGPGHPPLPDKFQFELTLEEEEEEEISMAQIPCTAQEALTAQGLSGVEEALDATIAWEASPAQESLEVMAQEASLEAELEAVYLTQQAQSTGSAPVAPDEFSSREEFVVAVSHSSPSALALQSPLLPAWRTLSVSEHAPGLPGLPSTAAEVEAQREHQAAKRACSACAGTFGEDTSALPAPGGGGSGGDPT
Description: The assay reaction contained 100 nM [^3H]cAMP (1 μCi/ml) in a buffer containing 20 mM HEPES (pH 7.5), 10 mM MgCl2, 100 mM EDTA, 100 mM KCl and 2 μl of test compound in DMSO at 30° C. The reaction was initiated by addition of enzyme for 10 min. The potency of inhibitors (IC50) was determined from a dose-response curve. Experiments were performed with n=6.

[8] = Table 5, N3 compounds, against AfChiB, read-out: IC50
[9] = Table 6, N7 compounds, against AfChiB, read-out: IC50
[10] = Trio substrate, pH 5.2, read-out: H.Chito Trio pH 5.2 (IC50)
[11] = human AMCase, Bio substrate, pH 4.5, read-out: H.AMCase Bio pH 4.5 (IC50)
[12] = mouse AMCase, Bio substrate, pH 4.5, read-out: M.AMCase Bio pH 4.5 (IC50)
[13] = mouse chitotriosidase, Bio substrate, pH 5.2, read-out: M.Chito Bio pH 5.2 (IC50)
[14] = 2 nM enzyme, 20 μM substrate, pH 5.5, 10 min at 37° C., read-out: AfChiB1 IC50

Structure (SMILES): Cn1cnc2c1c(=O)n(CCn1c(=O)c3c(ncn3C)n(C)c1=O)c(=O)n2C [Compound 1]
- IC50 (AfChiB1 [1]): 6 µM

Structure (SMILES): Cn1cnc2c1c(=O)n(CCCn1c(=O)c3c(ncn3C)n(C)c1=O)c(=O)n2C [Compound 2]
- IC50 (AfChiB1 [1]): 0.23 µM

Structure (SMILES): Cn1cnc2c1c(=O)n(CCCCn1c(=O)c3c(ncn3C)n(C)c1=O)c(=O)n2C [Compound 3]
- IC50 (AfChiB1 [1]): 6 µM

Structure (SMILES): Cn1cnc2[nH]c(=O)n(CCCn3c(=O)c4c(ncn4C)n(C)c3=O)c(=O)c21 [Compound 9]
- IC50 (AfChiB1 [1]; [8]): 0.086 µM

Structure (SMILES): CCn1c(=O)n(CCCn2c(=O)c3c(ncn3C)n(C)c2=O)c(=O)c2c1ncn2C [Compound 10]
- IC50 (AfChiB1 [1]; [8]): 0.31 µM

Structure (SMILES): C=CCn1c(=O)n(CCCn2c(=O)c3c(ncn3C)n(C)c2=O)c(=O)c2c1ncn2C [Compound 11]
- IC50 (AfChiB1 [1]; [8]): 0.14 µM

Structure (SMILES): CC(C)n1c(=O)n(CCCn2c(=O)c3c(ncn3C)n(C)c2=O)c(=O)c2c1ncn2C [Compound 12]
- IC50 (AfChiB1 [1]; [8]): 0.52 µM

Structure (SMILES): Cn1cnc2c1c(=O)n(CCCn1c(=O)c3c(ncn3C)n(CCN)c1=O)c(=O)n2C [Compound 13]
- IC50 (AfChiB1 [1]; [8]): 0.078 µM

Structure (SMILES): Cn1cnc2c1c(=O)n(CCCn1c(=O)c3c(ncn3C)n(CCO)c1=O)c(=O)n2C [Compound 14]
- IC50 (AfChiB1 [1]; [8]): 0.18 µM

Structure (SMILES): Cn1cnc2c1c(=O)n(CCCn1c(=O)c3c(ncn3C)n(CCCN)c1=O)c(=O)n2C [Compound 15]
- IC50 (AfChiB1 [1]; [8]): 0.44 µM

Structure (SMILES): Cn1cnc2c1c(=O)n(CCCn1c(=O)c3c(ncn3C)n(CCCO)c1=O)c(=O)n2C [Compound 16]
- IC50 (AfChiB1 [1]; [8]): 0.44 µM

Structure (SMILES): Cn1cnc2c1c(=O)n(CCCn1c(=O)c3nc[nH]c3n(C)c1=O)c(=O)n2C [Compound 17]
- IC50 (AfChiB1 [1]; [9]): 0.2 µM

Structure (SMILES): Cn1cnc2c1c(=O)n(CCCn1c(=O)c3c(ncn3CCC(=O)O)n(C)c1=O)c(=O)n2C [Compound 19]
- IC50 (AfChiB1 [1]; [9]): 0.16 µM

Structure (SMILES): COC(=O)CCCn1cnc2c1c(=O)n(CCCn1c(=O)c3c(ncn3C)n(C)c1=O)c(=O)n2C [Compound 20]
- IC50 (AfChiB1 [1]; [9]): 0.14 µM

Structure (SMILES): Cn1cnc2c1c(=O)n(CCCn1c(=O)c3c(ncn3CCCC(=O)O)n(C)c1=O)c(=O)n2C [Compound 21]
- IC50 (AfChiB1 [1]; [9]): 0.2 µM

Structure (SMILES): COC(=O)CCCCn1cnc2c1c(=O)n(CCCn1c(=O)c3c(ncn3C)n(C)c1=O)c(=O)n2C [Compound 22]
- IC50 (AfChiB1 [1]; [9]): 0.3 µM

Structure (SMILES): Cn1cnc2c1c(=O)n(CCCn1c(=O)c3c(ncn3CCCCC(=O)O)n(C)c1=O)c(=O)n2C [Compound 23]
- IC50 (AfChiB1 [1]; [9]): 0.36 µM

Structure (SMILES): COC(=O)C=CCn1cnc2c1c(=O)n(CCCn1c(=O)c3c(ncn3C)n(C)c1=O)c(=O)n2C [Compound 24]
- IC50 (AfChiB1 [1]; [9]): 0.16 µM

Structure (SMILES): Cn1cnc2c1c(=O)n(CCCn1c(=O)c3c(ncn3CC=CC(=O)O)n(C)c1=O)c(=O)n2C [Compound 25]
- IC50 (AfChiB1 [1]; [9]): 0.42 µM

Structure (SMILES): Cn1c(=O)c2c(ncn2C)n(C)c1=O [caffeine]
- IC50 (human chitotriosidase): 257 ± 8 µM
- hAMCase activity at 1 mM (human AMCase): 36%
- IC50 [2]: 1250 ± 278 µM
- Egg white lysozyme activity at 500 μM [3]: 100%
- IC50 ([4]; H.Chito Bio pH 5.2 (IC50), Bio substrate): 650 µM
- IC50 [4, 10]: 850 µM
- IC50 (H.AMCase (human AMCase); [11]): 500 µM
- IC50 (M.AMCase (mouse AMCase); [12]): 800 µM
- IC50 [5, 13]: > 1000 µM

Structure (SMILES): CC(=O)CCCCn1c(=O)c2c(ncn2C)n(C)c1=O [pentoxifylline]
- IC50 (AfChiB1 [1]; [14]): 126 µM
- Ki (AfChiB1 [1]; competitive inhibitor, 5-30 μM substrate, fit to competitive inhibition equation): 37 µM
- Kd (AfChiB1 [6]): 43 ± 10 µM
- IC50 (human chitotriosidase): 98 µM
- hAMCase activity at 1 mM (human AMCase): 49%
- IC50 [2]: 881 ± 319 µM
- Egg white lysozyme activity at 500 μM [3]: 100%
- IC50 [4, 10]: 400 µM
- IC50 (H.AMCase (human AMCase); [11]): 400 µM
- IC50 (M.AMCase (mouse AMCase); [12]): 400 µM
- IC50 [5, 13]: ~1000 µM
- inhibition of human phosphodiesterase-4 [7]: barely detectable

Structure (SMILES): Cn1c(=O)c2[nH]cnc2n(C)c1=O [theophylline]
- IC50 (AfChiB1 [1]; [14]): 1500 µM
- IC50 [2]: 1010 ± 159 µM
- Egg white lysozyme activity at 500 μM [3]: 100%
- IC50 (H.AMCase (human AMCase)): ~2000 µM
- IC50 (M.AMCase (mouse AMCase)): ~1600 µM
- IC50 [5]: > 2000 µM
